SMILES strings stand for the structures. Bounds are passed on as bounds.

Assay in all cases: Kinase panel enzymatic inhibition assay (Nanosyn)
Common to all, as to format: biochemical

For assay [1], the target named is T1, WEE1 (Homo sapiens, UniProt P30291).
T1 construct: purchased Nanosyn
Particulars: ATP at Km; 30-minute pre-incubation; read-out: kinase inhibition in terms of IC50, WEE1. On the procedure:
(§1) The disclosed compounds were tested for activity against a panel of at least 300 kinases. Kinase panel screening was conducted by Nanosyn (Santa Clara, CA 95051) using an enzymatic inhibition assay accepted as valid by those skilled in the art (e.g., the Caliper LabChip® mobility shift assay, an ADP detection assay, or time-resolved fluorescence detection technology. Compounds were screened at a concentration of 5 μM using an ATP concentration at the Km for each of the respective kinases and a 30-minute pre-incubation time-point.
(§2) In Table 1 and 2, kinase inhibition is classified by: A=95% or greater, B=90%-94%, C=80%-89%, and D=79% and less with a compound concentration of 5 JIM. In Table 3 and 4, kinase inhibition is reported in terms of IC50 values corresponding to A=less than 500 nm, B=500 nm to less than 1 μM, C=1 μM to less than 10 μM, and D=10 μM or greater using a compound concentration of 5 μM.

Assay [2] deals with T2, SYK (Homo sapiens, UniProt P43405).
T2 construct: purchased Nanosyn
The settings on record: ATP at Km; 30-minute pre-incubation; read-out: kinase inhibition in terms of IC50, SYK. On the procedure: as §1, §2

Assay [3] has as its target T3, PAK1 (Homo sapiens, UniProt Q13153).
T3 construct: Nanosyn (contract laboratory that ran the panel)
The settings on record: ATP at Km; 30-minute pre-incubation; read-out: kinase inhibition in terms of IC50, PAK1. On the procedure:
as §1, §2

The target in assay [4] is T4, TYRO3 (Homo sapiens, UniProt Q06418).
T4 construct: purchased Nanosyn
T4 sequence (Q06418 41-890): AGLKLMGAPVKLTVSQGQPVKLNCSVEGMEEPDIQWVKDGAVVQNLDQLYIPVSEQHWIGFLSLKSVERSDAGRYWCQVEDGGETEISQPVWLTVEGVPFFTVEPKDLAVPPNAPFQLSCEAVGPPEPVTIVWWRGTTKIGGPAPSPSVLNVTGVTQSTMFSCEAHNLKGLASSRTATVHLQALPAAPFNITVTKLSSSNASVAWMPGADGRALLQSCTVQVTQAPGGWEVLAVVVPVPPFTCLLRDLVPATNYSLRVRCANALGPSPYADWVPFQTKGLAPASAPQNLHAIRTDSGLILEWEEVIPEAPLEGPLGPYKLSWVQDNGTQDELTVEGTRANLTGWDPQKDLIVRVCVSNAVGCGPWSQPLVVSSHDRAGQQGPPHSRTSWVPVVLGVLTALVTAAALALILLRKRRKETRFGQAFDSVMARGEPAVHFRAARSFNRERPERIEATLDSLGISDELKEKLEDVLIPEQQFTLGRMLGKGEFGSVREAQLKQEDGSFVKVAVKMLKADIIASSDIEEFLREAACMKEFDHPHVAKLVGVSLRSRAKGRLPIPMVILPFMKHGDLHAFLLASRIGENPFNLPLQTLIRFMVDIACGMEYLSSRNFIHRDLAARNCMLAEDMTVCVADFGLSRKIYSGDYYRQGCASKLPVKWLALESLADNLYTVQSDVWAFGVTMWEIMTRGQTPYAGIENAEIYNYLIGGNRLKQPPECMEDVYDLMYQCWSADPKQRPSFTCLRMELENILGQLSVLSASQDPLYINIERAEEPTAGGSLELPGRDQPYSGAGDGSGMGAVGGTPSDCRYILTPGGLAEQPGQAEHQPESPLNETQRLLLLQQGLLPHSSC
The settings on record: ATP at Km; 30-minute pre-incubation; read-out: kinase inhibition in terms of IC50, TYRO3. On the procedure: as §1, §2

The target of assay [5] is T5, RIPK2 (Homo sapiens, UniProt O43353).
T5 construct: purchased Nanosyn
Particulars: ATP at Km; 30-minute pre-incubation; read-out: kinase inhibition in terms of IC50, RIPK2. On the procedure:
as §1, §2

The target in assay [6] is T6, RIPK1 (Homo sapiens, UniProt Q13546).
T6 construct: purchased Nanosyn
T6 sequence (Q13546 1-671): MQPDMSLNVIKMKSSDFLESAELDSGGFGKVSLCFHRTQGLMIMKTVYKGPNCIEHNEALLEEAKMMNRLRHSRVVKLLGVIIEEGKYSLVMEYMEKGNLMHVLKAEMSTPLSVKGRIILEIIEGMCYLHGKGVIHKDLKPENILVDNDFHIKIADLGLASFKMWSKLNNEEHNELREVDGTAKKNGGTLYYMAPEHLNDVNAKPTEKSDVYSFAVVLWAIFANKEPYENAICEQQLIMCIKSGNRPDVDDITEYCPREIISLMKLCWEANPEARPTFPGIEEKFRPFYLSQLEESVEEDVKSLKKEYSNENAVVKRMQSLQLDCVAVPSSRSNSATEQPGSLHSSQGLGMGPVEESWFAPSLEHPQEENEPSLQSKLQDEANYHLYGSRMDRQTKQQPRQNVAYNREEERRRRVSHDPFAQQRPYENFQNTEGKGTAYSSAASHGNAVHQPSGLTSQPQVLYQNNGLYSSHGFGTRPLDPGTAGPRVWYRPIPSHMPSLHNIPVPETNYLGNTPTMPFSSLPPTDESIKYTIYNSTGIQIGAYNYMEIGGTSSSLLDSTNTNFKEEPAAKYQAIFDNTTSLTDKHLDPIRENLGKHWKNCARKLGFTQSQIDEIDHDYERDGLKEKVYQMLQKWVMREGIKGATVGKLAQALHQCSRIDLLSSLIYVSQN
The settings on record: ATP at Km; 30-minute pre-incubation; read-out: kinase inhibition in terms of IC50, RIPK1. On the procedure: as §1, §2

Assay [7] has as its target T7, TAK1-TAB1 (Homo sapiens, UniProt O43318).
T7 construct: purchased Nanosyn
T7 sequence (O43318 with tags, fused parts or gaps limits assumed): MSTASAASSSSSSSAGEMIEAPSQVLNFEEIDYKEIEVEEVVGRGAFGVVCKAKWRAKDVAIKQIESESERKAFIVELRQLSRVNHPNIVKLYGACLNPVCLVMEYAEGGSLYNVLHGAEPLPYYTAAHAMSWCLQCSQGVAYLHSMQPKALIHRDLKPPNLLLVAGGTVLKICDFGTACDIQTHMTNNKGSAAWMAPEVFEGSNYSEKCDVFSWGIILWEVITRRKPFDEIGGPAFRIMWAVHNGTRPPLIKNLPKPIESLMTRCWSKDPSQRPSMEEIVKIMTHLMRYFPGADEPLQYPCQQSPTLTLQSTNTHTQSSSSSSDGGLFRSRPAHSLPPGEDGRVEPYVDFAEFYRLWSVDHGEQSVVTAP
The settings on record: ATP at Km; 30-minute pre-incubation; read-out: kinase inhibition in terms of IC50, TAK1-TAB1. On the procedure:
as §1, §2

Assay [8] has as its target T8, PLK4 (Homo sapiens, UniProt O00444).
T8 construct: Nanosyn (contract laboratory that ran the panel)
T8 sequence (O00444 1-970): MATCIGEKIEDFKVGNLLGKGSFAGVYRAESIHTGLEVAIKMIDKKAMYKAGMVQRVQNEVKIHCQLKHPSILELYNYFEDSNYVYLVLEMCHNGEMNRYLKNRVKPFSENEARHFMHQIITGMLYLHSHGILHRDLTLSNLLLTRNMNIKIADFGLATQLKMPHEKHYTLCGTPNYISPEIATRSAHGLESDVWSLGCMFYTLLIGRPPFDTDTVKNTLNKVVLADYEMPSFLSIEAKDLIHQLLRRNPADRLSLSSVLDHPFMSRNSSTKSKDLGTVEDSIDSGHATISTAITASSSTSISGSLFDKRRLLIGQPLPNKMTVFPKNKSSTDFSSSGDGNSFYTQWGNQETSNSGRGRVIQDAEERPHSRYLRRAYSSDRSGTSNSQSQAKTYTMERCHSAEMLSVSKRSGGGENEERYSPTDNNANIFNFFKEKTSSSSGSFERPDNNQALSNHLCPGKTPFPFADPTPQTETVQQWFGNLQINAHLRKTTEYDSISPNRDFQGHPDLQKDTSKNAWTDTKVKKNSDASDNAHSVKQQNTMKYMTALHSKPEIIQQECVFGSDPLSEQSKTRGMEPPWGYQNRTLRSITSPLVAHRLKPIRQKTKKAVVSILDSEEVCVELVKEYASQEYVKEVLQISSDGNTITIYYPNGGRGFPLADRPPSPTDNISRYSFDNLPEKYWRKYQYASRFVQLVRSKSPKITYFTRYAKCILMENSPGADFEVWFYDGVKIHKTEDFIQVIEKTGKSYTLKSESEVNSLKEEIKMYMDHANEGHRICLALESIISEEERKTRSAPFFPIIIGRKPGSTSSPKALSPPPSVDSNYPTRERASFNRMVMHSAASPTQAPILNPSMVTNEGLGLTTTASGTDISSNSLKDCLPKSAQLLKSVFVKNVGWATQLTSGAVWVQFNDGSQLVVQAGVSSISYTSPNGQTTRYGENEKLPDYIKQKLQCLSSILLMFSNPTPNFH
Particulars: ATP at Km; 30-minute pre-incubation; read-out: kinase inhibition in terms of IC50, PLK4. On the procedure:
as §1, §2

T1 sequence (P30291 whole entry): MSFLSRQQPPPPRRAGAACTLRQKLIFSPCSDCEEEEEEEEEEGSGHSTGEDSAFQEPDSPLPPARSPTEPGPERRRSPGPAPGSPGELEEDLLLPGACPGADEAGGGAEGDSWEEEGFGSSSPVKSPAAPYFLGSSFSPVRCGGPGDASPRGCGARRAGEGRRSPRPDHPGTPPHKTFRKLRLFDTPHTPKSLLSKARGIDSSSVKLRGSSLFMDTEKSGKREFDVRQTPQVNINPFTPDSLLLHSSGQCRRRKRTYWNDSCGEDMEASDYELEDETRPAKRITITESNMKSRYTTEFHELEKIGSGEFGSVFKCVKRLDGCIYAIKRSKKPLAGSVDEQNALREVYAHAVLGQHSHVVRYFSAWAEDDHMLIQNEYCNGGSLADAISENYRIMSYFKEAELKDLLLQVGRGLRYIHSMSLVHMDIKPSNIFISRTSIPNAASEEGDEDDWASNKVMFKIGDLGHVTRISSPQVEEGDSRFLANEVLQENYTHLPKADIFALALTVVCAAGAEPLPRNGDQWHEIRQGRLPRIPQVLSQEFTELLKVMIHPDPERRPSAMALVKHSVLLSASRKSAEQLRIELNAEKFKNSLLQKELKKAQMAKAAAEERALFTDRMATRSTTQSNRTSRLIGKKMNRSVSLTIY
T5 sequence (O43353 whole entry): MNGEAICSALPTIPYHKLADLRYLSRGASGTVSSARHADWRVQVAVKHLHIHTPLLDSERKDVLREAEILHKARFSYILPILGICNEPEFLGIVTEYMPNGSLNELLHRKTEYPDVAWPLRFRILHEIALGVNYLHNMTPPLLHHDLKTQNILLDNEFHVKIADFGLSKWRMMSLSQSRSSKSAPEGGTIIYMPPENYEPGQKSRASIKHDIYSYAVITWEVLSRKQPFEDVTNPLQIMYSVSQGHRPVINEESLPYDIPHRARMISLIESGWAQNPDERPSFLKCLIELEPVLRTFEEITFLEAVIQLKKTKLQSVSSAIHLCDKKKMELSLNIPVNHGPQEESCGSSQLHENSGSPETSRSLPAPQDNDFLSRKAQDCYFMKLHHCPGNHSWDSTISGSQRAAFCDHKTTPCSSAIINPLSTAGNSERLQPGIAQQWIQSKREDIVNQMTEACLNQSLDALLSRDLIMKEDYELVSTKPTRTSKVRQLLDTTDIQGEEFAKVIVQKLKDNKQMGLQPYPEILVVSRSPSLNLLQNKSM
T3 sequence (Q13153 whole entry): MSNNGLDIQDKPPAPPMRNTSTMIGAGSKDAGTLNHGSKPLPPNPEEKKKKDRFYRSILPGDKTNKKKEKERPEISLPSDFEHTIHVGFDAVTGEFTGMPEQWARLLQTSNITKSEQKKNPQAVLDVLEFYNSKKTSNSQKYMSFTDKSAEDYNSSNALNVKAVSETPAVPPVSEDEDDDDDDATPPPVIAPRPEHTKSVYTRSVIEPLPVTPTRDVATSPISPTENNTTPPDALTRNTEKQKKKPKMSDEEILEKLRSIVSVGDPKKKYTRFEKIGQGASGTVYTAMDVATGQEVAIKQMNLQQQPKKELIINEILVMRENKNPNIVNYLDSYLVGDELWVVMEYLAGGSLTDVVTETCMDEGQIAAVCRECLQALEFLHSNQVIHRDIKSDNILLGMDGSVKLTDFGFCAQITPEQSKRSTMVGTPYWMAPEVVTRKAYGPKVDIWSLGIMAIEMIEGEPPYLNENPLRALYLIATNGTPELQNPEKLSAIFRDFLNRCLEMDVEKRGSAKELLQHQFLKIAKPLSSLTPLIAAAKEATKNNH

Usually IC50 stands for the point on the concentration scale where inhibition reaches its midpoint. With `CNc1ncc2c(C)c(-c3cc(NC(=O)c4ccn(-c5ccc(F)cc5)n4)ccc3Cl)c(=O)n(C)c2n1` [Ex69, N-(4-chloro-3-(5,8-dimethyl-2-(methylamino)-7-oxo-7,8-dihydropyrido[2,3-d]pyrimidin-6-yl)phenyl)-1-(4-fluorophenyl)-1H-pyrazole-3-carboxamide], in assay [1], the IC50 was not below 10 µM.
Still for that read-out and setting: then `CS(=O)(=O)c1cc(C(=O)Nc2cc(Br)c(F)c(C(=O)c3c[nH]c4ncc(Cl)cc34)c2F)nn1-c1ccc(F)cc1` [Ex70, N-(5-bromo-3-(5-chloro-1H-pyrrolo[2,3-b]pyridine-3-carbonyl)-2,4-difluorophenyl)-1-(4-fluorophenyl)-5-(methylsulfonyl)-1H-pyrazole-3-carboxamide], with not below 10 µM.
In the case of `CNc1ncc2cc(-c3cc(NC(=O)c4ccn(-c5ccc(F)cc5)n4)ccc3C)c(=O)n(C)c2n1` [Ex74, 1-(4-fluorophenyl)-N-(4-methyl-3-(8-methyl-2-(methylamino)-7-oxo-7,8-dihydropyrido[2,3-d]pyrimidin-6-yl)phenyl)-1H-pyrazole-3-carboxamide], the IC50 in assay [1] is not below 10 µM; in assay [2] it was 1 to 10 µM; in assay [3], not below 10 µM.
For `COc1cc2nccc(Oc3ccc(NC(=O)c4cc(SC)n(-c5ccc(F)cc5)n4)c(F)c3)c2cc1OC` [Ex77, N-(4-((6,7-dimethoxyquinolin-4-yl)oxy)-2-fluorophenyl)-1-(4-fluorophenyl)-5-(methylthio)-1H-pyrazole-3-carboxamide], the IC50 in assay [2] was not below 10 µM; in assay [4], less than 0.5 µM.
In the case of `COc1cc2nccc(Oc3ccc(NC(=O)c4ccn(-c5ccc(F)cc5)n4)c(F)c3)c2cc1OC` [Ex78, N-(4-((6,7-dimethoxyquinolin-4-yl)oxy)-2-fluorophenyl)-1-(4-fluorophenyl)-1H-pyrazole-3-carboxamide], the IC50 was 1 to 10 µM in assay [2] and less than 0.5 µM in assay [4].
In the case of `Cc1ccc(NC(=O)c2ccn(-c3ccc(F)cc3)n2)cc1C#Cc1cnc2cccnn12` [Ex79, 1-(4-fluorophenyl)-N-(3-(imidazo[1,2-b]pyridazin-3-ylethynyl)-4-methylphenyl)-1H-pyrazole-3-carboxamide], the IC50 in assay [5] and in assay [6] was less than 0.5 µM in each case.
As to `Nc1ncnc2scc(C#Cc3cccc(NC(=O)c4ccn(-c5ccc(F)cc5)n4)c3)c12` [Ex81, N-(3-((4-aminothieno[2,3-d]pyrimidin-5-yl)ethynyl)phenyl)-1-(4-fluorophenyl)-1H-pyrazole-3-carboxamide], the IC50 in assay [2] lay in the range of 1 to 10 µM.
Consider `CNc1ncc2cc(-c3c(Cl)ccc(NC(=O)c4ccn(-c5ccc(F)cc5)n4)c3Cl)c(=O)n(C)c2n1` [Ex82, N-(2,4-dichloro-3-(8-methyl-2-(methylamino)-7-oxo-7,8-dihydropyrido[2,3-d]pyrimidin-6-yl)phenyl)-1-(4-fluorophenyl)-1H-pyrazole-3-carboxamide], for which, in assay [1], the IC50 was not below 10 µM.
In the case of `Cc1ccc(NC(=O)c2ccn(-c3ccc(F)cc3)n2)cc1Oc1ccnc2[nH]ccc12` [Ex83, N-(3-((1H-pyrrolo[2,3-b]pyridin-4-yl)oxy)-4-methylphenyl)-1-(4-fluorophenyl)-1H-pyrazole-3-carboxamide], in assay [7], the IC50 is not below 10 µM.
`O=C(Nc1cccc(NC(=O)c2ccn(-c3ccc(F)cc3)n2)c1)c1cccc(-c2ccn[nH]2)n1` [Ex84, N-(3-(1-(4-fluorophenyl)-1H-pyrazole-3-carboxamido)phenyl)-6-(1H-pyrazol-5-yl)picolinamide]: the IC50 in assay [8] is not below 10 µM.
With `CC(=O)Nc1nc(C)c(-c2ccnc(Nc3cc(NC(=O)c4ccn(-c5ccc(F)cc5)n4)ccc3C)n2)s1` [Ex86, N-(3-((4-(2-acetamido-4-methylthiazol-5-yl)pyrimidin-2-yl)amino)-4-methylphenyl)-1-(4-fluorophenyl)-1H-pyrazole-3-carboxamide], in assay [8], the IC50 is less than 0.5 µM.

Values taken from patent US20240400577A1, “MODULATORS OF PROTEIN KINASES” (VIBLIOME THERAPEUTICS, LLC, priority 2021, published 2024).
